Assay results published in ChEMBL document CHEMBL2406904, “Mitigation of cardiovascular toxicity in a series of CSF-1R inhibitors, and the identification of AZD7507” (Bioorg Med Chem Lett, 2013).

Assays:
Assay type in all cases: ADME, organism-based
[1] = Volume of distribution at steady state in rat at 10 mg/kg, po and 3 mg/kg, iv; details: in vivo, read-out: Vdss
[2] = Oral bioavailability in rat at 10 mg/kg; details: in vivo
[3] = Clearance in rat at 10 mg/kg, po; set-up: dose 10 mg/kg, route oral; details: in vivo
[4] = Half life in rat at 10 mg/kg, po and 3 mg/kg, iv; details: in vivo

| SMILES | Vd [1] [L/kg] | bioavailability [2] [%] | CL/F [3] [L/h/kg] | half-life [4] [h] |
| --- | --- | --- | --- | --- |
| COc1cc2nnc(C(N)=O)c(Nc3ccc(C)cc3F)c2cc1N1C[C@@H](C)N[C@@H](C)C1 | 1.6 | 61 | 0.24 | 4.4 |
| COc1cc2nnc(C(N)=O)c(Nc3ccc(C)cc3F)c2cc1N1CCC(N(C)C)CC1 | 2.2 | 15 | 2.04 | 0.9 |
| COc1cc2nnc(C(N)=O)c(Nc3ccc(C)cc3F)c2cc1N1CCCN(CCO)CC1 | 2.2 | 4 | 3.96 | 0.9 |
| COc1cc2nnc(C(N)=O)c(Nc3ccc(C)cc3F)c2cc1N1CCOCC1 | 1.7 | 25 | 3.6 | 0.5 |
| COc1cc2nnc(C(N)=O)c(Nc3ccc(C)cc3F)c2cc1N1CCC(OC)CC1 | 1.8 | 21 | 3.48 | 0.6 |
| COc1cc2nnc(C(N)=O)c(Nc3ccc(C)cc3F)c2cc1C1CCN(C(C)C)CC1 | 2.6 | 100 | 0.84 | 3.5 |
| COc1cc2nnc(C(N)=O)c(Nc3ccc(C)cc3F)c2cc1C1CCN(CCO)CC1 | 3.1 | 100 | 0.48 | 6.1 |

The next lines start with the values.

| Vd [1] [L/kg] | bioavailability [2] [%] | CL/F [3] [L/h/kg] | half-life [4] [h] | SMILES |
| --- | --- | --- | --- | --- |
| 3.8 | 100 | 0.72 | 5.7 | COc1cc2nnc(C(N)=O)c(Nc3ccc(C)cc3F)c2cc1N1CCN(C)CC1 |
| 3.8 | 100 | 1.02 | 2.5 | COc1cc2nnc(C(N)=O)c(Nc3ccc(C)cc3F)c2cc1N1CCN(C(C)C)CC1 |
| 4.3 | 3 | 1.26 | 7.6 | COCCN1CCN(c2cc3c(Nc4ccc(C)cc4F)c(C(N)=O)nnc3cc2OC)CC1 |
| 1.7 | 3 | 1.32 | 1.5 | COc1cc2nnc(C(N)=O)c(Nc3ccc(C)cc3F)c2cc1N1CCN(S(C)(=O)=O)CC1 |
| 2.2 | 42 | 0.42 | 3.1 | COc1cc2nnc(C(N)=O)c(Nc3ccc(C)cc3F)c2cc1N1CCN(CCO)CC1 |
| 1.3 | 53 | 1.44 | 0.9 | COc1cc2nnc(C(N)=O)c(Nc3ccc(C)cc3F)c2cc1N1CCN(C(=O)[C@@H](C)O)CC1 |
